Measurements: patent US20200179319A1, “PHARMACEUTICAL FORMULATIONS AND THEIR USE” (Signum Biosciences, Inc., priority 2016, published 2020)

Key:
Assay type in all cases: physicochemical
[1] = Stability Study 1: storage stability of a formulation comprising the disodium salt, HPLC; settings: 25° C., heading 30° C.; for % weight in formulation after 1 month: after 1 month storage; for % weight in formulation after 3 months: after 3 months storage; for % weight in formulation after 6 months: after 6 months storage; for % weight in formulation after 9 months: after 9 months storage; for Initial (% weight of formulation): formulation comprising the disodium salt
Procedure: The stability of a formulation comprising the disodium salt of […] In each case, the percentage of 4-(((R)-1-carboxy-2-(((2E,6E)-3,7,11-trimethyldodeca-2,6,10-trien-1-yl)thio)ethyl)amino)-4-oxobutanoic acid remaining at each time point was determined by use of HPLC.

[2] = Stability Study 2 conducted at 5° C.: storage stability of a formulation comprising the disodium salt, HPLC; settings: for weight percentage of the component, 1 months: 1 month at 5° C.; for weight percentage of the component, 2 months: 2 months at 5° C.; for weight percentage of the component, 3 months: 3 months at 5° C.; for weight percentage of the component, 6 months: 6 months at 5° C.; for weight percentage of the component, 9 months: 9 months at 5° C.; for weight percentage of the component, 12 months: 12 months at 5° C.; for weight percentage of the component, 18 months: 18 months at 5° C.; for weight percentage of the component, 24 months: 24 months at 5° C.; for weight percentage of the component, Initial: storage at 5° C.
Procedure: The stability of a formulation comprising the disodium salt of 4-(((R)-1-carboxy-2-(((2E,6E)-3,7,11-trimethyldodeca-2,6,10-trien-1-yl)thio)ethyl)amino)-4-oxobutanoic acid was determined after storage at 5° C. for a period of 1 month, 2 months, 3 months, 6 months, 9 months, 12 months, 18 months, and 24 months. In each case, the percentage of 4-(((R)-1-carboxy-2-(((2E,6E)-3,7,11-trimethyldodeca-2,6,10-trien-1-yl)thio)ethyl)amino)-4-oxobutanoic acid remaining at each time point was determined by use of HPLC. Each of the percentages in the table below are expressed at the weight percentage of the component as compared to the total weight of the composition.

[3] = Screening Study (Example 5): sulfoxide formed in API solution with each agent, HPLC; settings: for (% area sulfoxide for each agent/% area sulfoxide in Blank) / Average % area sulfoxide for 3 runs per agent: 24 hours exposed to air at room temperature, not protected from light; for % area sulfoxide relative to % area Control: Control: no agent, stored at 5° C. and protected from light; for Average % area sulfoxide for 3 runs per agent: pH 7.4 to 7.5 buffer, API disodium salt solution plus agent
Procedure: A buffer solution was prepared by adding 0.72 g of Na2HPO4, 0.24 g KH2PO4 and 500 mL of deionized water into a container and mixing. The pH of the mixture was adjusted to 7.4 to 7.5 using NaOH and H3PO4.
(§1) A solution of each agent in the table below was prepared by adding 500 mg or each agent into a 25 mL volumetric flask and filling the flask to volume by the addition of the prepared buffer solution.
A 6% solution of API was prepared by adding 3.0 g the disodium salt of 4-(((R)-1-carboxy-2-(((2E,6E)-3,7,11-trimethyldodeca-2,6,10-trien-1-yl)thio)ethyl)amino)-4-oxobutanoic acid to a 50 mL volumetric flask filling the flask to volume by the addition of argon-sparged methanol, followed by mixing.
(§2) A screen was performed for each agent as follows: (1) 2.5 mL of the stock solution of API and 2.5 mL of each agent was added into scintillation vial, the vial was capped and the contents were mixed (repeated three times for each agent); and (2) allowing each resulting mixture to sit for 24 hours exposed to air at room temperature and not protected from light. A blank solution was prepared (3×) by adding buffer solution into the 100 mL volumetric flask in place of the agent and was stored under the same conditions as the other samples, 24 hours exposed to air at room temperature and not protected from light. After 24 hours, the contents of each vial were transferred to a 100 mL volumetric flask and each volumetric flask was filled to volume by the addition of methanol, and an aliquot of each mixture was removed and analyzed by HPLC.
(§3) The area of the sulfoxide of 4-(((R)-1-carboxy-2-(((2E,6E)-3,7,11-trimethyldodeca-2,6,10-trien-1-yl)thio)ethyl)amino)-4-oxobutanoic acid produced in each solution was calculated as follows: % area sulfoxide=Rsulfoxide/(Rparent+Rsulfoxide), wherein Rsuffoxide=the area under the response of the sulfoxide in the HPLC trace, and Rparent=the area under the response of 4-(((R)-1-carboxy-2-(((2E,6E)-3,7,11-trimethyldodeca-2,6,10-trien-1-yl)thio)ethyl)amino)-4-oxobutanoic acid in the HPLC trace. The control sample in Table 8 contained no agent, was stored at 5° C. and protected from light.

[4] = Screening Study (Example 3): sulfoxide formed in API solution with each agent, HPLC; settings: 24 hours exposed to air at room temperature, not protected from light; for Average % area sulfoxide for 3 runs per agent: API disodium salt solution plus agent
Procedure: A buffer solution was prepared by adding 0.72 g of Na2HPO4, 0.24 g KH2PO4 and 500 mL of deionized water into a container and mixing.
as §1
A 6% solution of API was prepared by adding 3.0 g the disodium salt of 4-(((R)-1-carboxy-2-(((2E,6E)-3,7,11-trimethyldodeca-2,6,10-trien-1-yl)thio)ethyl)amino)-4-oxobutanoic acid to a 50 mL volumetric flask and filling the flask to volume by the addition of methanol, followed by mixing.
as §2, with “a 100 mL volumetric flask” for “scintillation vial, the vial was capped”, “agent.” for “agent and was stored under the same conditions as the other samples, 24 hours exposed to air at room temperature and not protected from light.”, “hours,” for “hours, the contents of each vial were transferred to a 100 mL volumetric flask and”
as §3, with “trace.” for “trace. The control sample in Table 8 contained no agent, was stored at 5° C. and protected from light.”

[5] = API stock in argon-sparged methanol

SMILES	% weight in formulation after 1 month [1] [%]	% weight in formulation after 3 months [1] [%]	% weight in formulation after 6 months [1] [%]	% weight in formulation after 9 months [1] [%]	Initial (% weight of formulation) [1] [%]	weight percentage of the component, 1 months [2] [weight percentage]	weight percentage of the component, 2 months [2] [weight percentage]	weight percentage of the component, 3 months [2] [weight percentage]	weight percentage of the component, 6 months [2] [weight percentage]	weight percentage of the component, 9 months [2] [weight percentage]	weight percentage of the component, 12 months [2] [weight percentage]	weight percentage of the component, 18 months [2] [weight percentage]	weight percentage of the component, 24 months [2] [weight percentage]	weight percentage of the component, Initial [2] [weight percentage]	(% area sulfoxide for each agent/% area sulfoxide in Blank) [3, 5]	% area sulfoxide relative to % area Control [3]	Average % area sulfoxide for 3 runs per agent [3] [%]	% area sulfoxide relative to % area Control [4]	(% area sulfoxide for each agent/% area sulfoxide in Blank) [4]	Average % area sulfoxide for 3 runs per agent [4] [%]	also measured
CC(C)=CCC/C(C)=C/CC/C(C)=C/CSC[C@H](NC(=O)CCC(=O)O)C(=O)O [4-(((R)-1-carboxy-2-(((2E,6E)-3,7,11-trimethyldodeca-2,6,10-trien-1-yl)thio)ethyl)amino)-4-oxobutanoic acid]	2.97	3.13	2.92	2.87	3.09	3.01	3.00	3.10	3.04	3.03	3.06	3.10	3.05	3.09							
O=C1O[C@H]([C@@H](O)CO)C(O)=C1O [Ascorbic acid]															2.39	1.812	2.771				
Cc1cc(C(C)(C)C)c(O)c(C(C)(C)C)c1 [Butylated hydroxytoluene (BHT), Butylated hydroxytoluene]															1.02	0.227	1.186	0.115	0.97	1.092	
O=C(CO)[C@@H](O)[C@H](O)[C@H](O)CO [Fructose]																		0.146	About 1	1.123	
O=S([O-])([O-])=S.[Na+].[Na+] [Sodium thiosulfate]																0.158	1.117	0.055	0.92	1.032	(% area sulfoxide for each agent/% area sulfoxide in Blank) [3]: 0.96
O=S([O-])CO.[Na+] [sodium hydroxymethylsulfinate]																		0.571	1.37	1.548	

Continued, in another order:

% weight in formulation after 1 month [1] [%]	% weight in formulation after 3 months [1] [%]	% weight in formulation after 6 months [1] [%]	% weight in formulation after 9 months [1] [%]	Initial (% weight of formulation) [1] [%]	weight percentage of the component, 1 months [2] [weight percentage]	weight percentage of the component, 2 months [2] [weight percentage]	weight percentage of the component, 3 months [2] [weight percentage]	weight percentage of the component, 6 months [2] [weight percentage]	weight percentage of the component, 9 months [2] [weight percentage]	weight percentage of the component, 12 months [2] [weight percentage]	weight percentage of the component, 18 months [2] [weight percentage]	weight percentage of the component, 24 months [2] [weight percentage]	weight percentage of the component, Initial [2] [weight percentage]	(% area sulfoxide for each agent/% area sulfoxide in Blank) [3, 5]	% area sulfoxide relative to % area Control [3]	Average % area sulfoxide for 3 runs per agent [3] [%]	SMILES	% area sulfoxide relative to % area Control [4]	(% area sulfoxide for each agent/% area sulfoxide in Blank) [4]	Average % area sulfoxide for 3 runs per agent [4] [%]	also measured
0.17	0.17	0.17	0.16	0.17	0.17	0.17	0.17	0.18	0.17	0.17	0.17	0.15	0.17				COC(=O)c1ccc(O)cc1 [Methylparaben]				
0.033	0.034	0.032	0.033	0.034	0.032	0.032	0.033	0.032	0.033	0.032	0.033	0.030	0.034				CCCOC(=O)c1ccc(O)cc1 [Propylparaben]				
0.031	0.113	0.053	0.134	0.037	0.039	0.076	0.112	0.048	0.049	0.050	0.052	0.044	0.037				CC(C)=CCC/C(C)=C/CC/C(C)=C/C[S+]([O-])C[C@H](NC(=O)CCC(=O)O)C(=O)O (stereo partly drawn) [Sulfoxide of 4-(((R)-1-carboxy-2-(((2E,6E)-3,7,11-trimethyldodeca-2,6,10-trien-1-yl)thio)ethyl)amino)-4-oxobutanoic acid]				
														7.38	7.587	8.546	CC(C)(C)c1cc(O)ccc1O [Tert-butylhydroquinone (TBHQ), Tert-butylhydroquinone]				
														1.01	0.208	1.167	CC(=O)Oc1c(C)c(C)c2c(c1C)CCC(C)(CCC[C@H](C)CCC[C@H](C)CCCC(C)C)O2 (some centres unmarked) [Vitamin E acetate]				
